Measured values taken from PubChem BioAssay (NCI).
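Method: 48-hour compound exposure of cells in 96-well plates, five concentrations, linear interpolation of endpoints. GI50: concentration for 50% inhibition of growth. TGI marks complete inhibition of growth.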

Experiments:
Assay in all cases: NCI anticancer screen, dose series, 48 h
SR leukemia = system: SR leukemia
RXF 393 renal = system: RXF 393 renal
CAKI-1 renal = system: CAKI-1 renal
T-47D breast = system: T-47D breast
SF-539 CNS = system: SF-539 CNS
OVCAR-3 ovarian = system: OVCAR-3 ovarian
NCI/ADR-RES ovarian = system: NCI/ADR-RES ovarian
IGROV1 ovarian = system: IGROV1 ovarian
M14 melanoma = system: M14 melanoma
NCI-H226 lung = system: NCI-H226 lung
SF-295 CNS = system: SF-295 CNS
UACC-62 melanoma = system: UACC-62 melanoma
EKVX NSCLC = system: EKVX NSCLC
NCI-H460 lung = system: NCI-H460 lung
SF-268 CNS = system: SF-268 CNS
A549 NSCLC = system: A549 NSCLC
SK-OV-3 ovarian = system: SK-OV-3 ovarian
U251 CNS = system: U251 CNS
HCT-15 colon = system: HCT-15 colon
MDA-MB-231 breast = system: MDA-MB-231 breast
HL-60(TB) leukemia = system: HL-60(TB) leukemia
NCI-H522 lung = system: NCI-H522 lung
MDA-MB-468 breast = system: MDA-MB-468 breast
OVCAR-5 ovarian = system: OVCAR-5 ovarian
A498 renal = system: A498 renal
NCI-H23 lung = system: NCI-H23 lung
DU-145 prostate = system: DU-145 prostate
UACC-257 melanoma = system: UACC-257 melanoma
KM12 colon = system: KM12 colon
PC-3 prostate = system: PC-3 prostate
HT29 colon = system: HT29 colon
MOLT-4 leukemia = system: MOLT-4 leukemia
HCC-2998 colon = system: HCC-2998 colon
HOP-92 NSCLC = system: HOP-92 NSCLC
SK-MEL-28 melanoma = system: SK-MEL-28 melanoma
SK-MEL-2 melanoma = system: SK-MEL-2 melanoma
HOP-62 NSCLC = system: HOP-62 NSCLC
RPMI-8226 leukemia = system: RPMI-8226 leukemia
BT-549 breast = system: BT-549 breast
MDA-MB-435 = system: MDA-MB-435
LOX IMVI melanoma = system: LOX IMVI melanoma
CCRF-CEM leukemia = system: CCRF-CEM leukemia
OVCAR-8 ovarian = system: OVCAR-8 ovarian
786-0 renal = system: 786-0 renal
SNB-75 CNS = system: SNB-75 CNS
SN12C renal = system: SN12C renal
SK-MEL-5 melanoma = system: SK-MEL-5 melanoma
UO-31 renal = system: UO-31 renal
HS 578T breast = system: HS 578T breast
SNB-19 CNS = system: SNB-19 CNS
HCT-116 colon = system: HCT-116 colon
SW-620 colon = system: SW-620 colon
MALME-3M melanoma = system: MALME-3M melanoma
ACHN renal = system: ACHN renal
OVCAR-4 ovarian = system: OVCAR-4 ovarian
COLO 205 colon = system: COLO 205 colon
TK-10 renal = system: TK-10 renal
MCF7 breast = system: MCF7 breast

Compound COc1cc2oc(-c3cccc(C(=O)Nc4ccc(Cl)cc4)c3)cc(=O)c2c(OCCNC(=O)[C@@H](N)CO)c1OC has a GI50 (SR leukemia) of 2.66 µM, a TGI (SR leukemia) of 7.75 µM and a GI50 (RXF 393 renal) of 8.76 µM. For the same compound, the TGI (RXF 393 renal) was 67.6 µM, the GI50 (CAKI-1 renal) was 65.4 µM and the TGI (CAKI-1 renal) was greater than 100 µM. It also gave a GI50 (T-47D breast) of 4.19 µM, a TGI (T-47D breast) of 21.9 µM and a GI50 (SF-539 CNS) of 11.3 µM. The TGI (SF-539 CNS) was 24.5 µM, the GI50 (OVCAR-3 ovarian) was 13.4 µM and the TGI (OVCAR-3 ovarian) was 26.9 µM. It also gave a GI50 (NCI/ADR-RES ovarian) greater than 100 µM, a TGI (NCI/ADR-RES ovarian) greater than 100 µM and a GI50 (IGROV1 ovarian) of 7.15 µM. The TGI (IGROV1 ovarian) was 23.9 µM, the GI50 (M14 melanoma) was 1.84 µM and the TGI (M14 melanoma) was 3.72 µM. For the same compound, the GI50 (NCI-H226 lung) was 12.8 µM, the TGI (NCI-H226 lung) was 53 µM and the GI50 (SF-295 CNS) was 6.84 µM. It also gave a TGI (SF-295 CNS) of 25.1 µM, a GI50 (UACC-62 melanoma) of 13.5 µM and a TGI (UACC-62 melanoma) of 31.6 µM. The GI50 (EKVX NSCLC) was 16.8 µM, the TGI (EKVX NSCLC) was greater than 100 µM and the GI50 (NCI-H460 lung) was 8.48 µM. For the same compound, the TGI (NCI-H460 lung) was 22.1 µM, the GI50 (SF-268 CNS) was 13.9 µM and the TGI (SF-268 CNS) was 32.4 µM. The GI50 (A549 NSCLC) was greater than 100 µM, the TGI (A549 NSCLC) was greater than 100 µM and the GI50 (SK-OV-3 ovarian) was 14.8 µM. The TGI (SK-OV-3 ovarian) was 38.2 µM, the GI50 (U251 CNS) was 2.02 µM and the TGI (U251 CNS) was 3.9 µM. The GI50 (HCT-15 colon) was 19.6 µM, the TGI (HCT-15 colon) was greater than 100 µM and the GI50 (MDA-MB-231 breast) was 2.87 µM. For the same compound, the TGI (MDA-MB-231 breast) was 9.37 µM, the GI50 (HL-60(TB) leukemia) was 8.2 µM and the TGI (HL-60(TB) leukemia) was 30.4 µM. For the same compound, the GI50 (NCI-H522 lung) was 3.61 µM, the TGI (NCI-H522 lung) was 18 µM and the GI50 (MDA-MB-468 breast) was 1.51 µM. It also gave a TGI (MDA-MB-468 breast) of 3.63 µM, a GI50 (OVCAR-5 ovarian) of 9.96 µM and a TGI (OVCAR-5 ovarian) of 44.3 µM. The GI50 (A498 renal) was 32.8 µM, the TGI (A498 renal) was 65.7 µM and the GI50 (NCI-H23 lung) was 12.6 µM. For the same compound, the TGI (NCI-H23 lung) was 30.2 µM, the GI50 (DU-145 prostate) was 16 µM and the TGI (DU-145 prostate) was 35.4 µM. For the same compound, the GI50 (UACC-257 melanoma) was 1.97 µM, the TGI (UACC-257 melanoma) was 3.74 µM and the GI50 (KM12 colon) was 15.3 µM. It also gave a TGI (KM12 colon) of 29.1 µM, a GI50 (PC-3 prostate) of 10.8 µM and a TGI (PC-3 prostate) of 35.6 µM. For the same compound, the GI50 (HT29 colon) was 6.44 µM, the TGI (HT29 colon) was 26.6 µM and the GI50 (MOLT-4 leukemia) was 2.4 µM. It also gave a TGI (MOLT-4 leukemia) of 5.18 µM, a GI50 (HCC-2998 colon) of 5.83 µM and a TGI (HCC-2998 colon) of 19.3 µM. The GI50 (HOP-92 NSCLC) was 2.65 µM, the TGI (HOP-92 NSCLC) was 12.7 µM and the GI50 (SK-MEL-28 melanoma) was 1.77 µM. For the same compound, the TGI (SK-MEL-28 melanoma) was 3.46 µM, the GI50 (SK-MEL-2 melanoma) was 2.1 µM and the TGI (SK-MEL-2 melanoma) was 5.03 µM. For the same compound, the GI50 (HOP-62 NSCLC) was 7.74 µM, the TGI (HOP-62 NSCLC) was 29 µM and the GI50 (RPMI-8226 leukemia) was 3.36 µM. The TGI (RPMI-8226 leukemia) was greater than 100 µM, the GI50 (BT-549 breast) was 10.3 µM and the TGI (BT-549 breast) was 25.4 µM. The GI50 (MDA-MB-435) was 4.59 µM, the TGI (MDA-MB-435) was 17.8 µM and the GI50 (LOX IMVI melanoma) was 1.79 µM. For the same compound, the TGI (LOX IMVI melanoma) was 3.5 µM, the GI50 (CCRF-CEM leukemia) was 2.39 µM and the TGI (CCRF-CEM leukemia) was 5.83 µM. The GI50 (OVCAR-8 ovarian) was 10.1 µM, the TGI (OVCAR-8 ovarian) was 21.7 µM and the GI50 (786-0 renal) was 13.2 µM. It also gave a TGI (786-0 renal) of 32.4 µM, a GI50 (SNB-75 CNS) of 10.2 µM and a TGI (SNB-75 CNS) of 24.3 µM. It also gave a GI50 (SN12C renal) of 6.64 µM, a TGI (SN12C renal) of 21.4 µM and a GI50 (SK-MEL-5 melanoma) of 9.11 µM. It also gave a TGI (SK-MEL-5 melanoma) of 26.6 µM, a GI50 (UO-31 renal) of 45.6 µM and a TGI (UO-31 renal) greater than 100 µM. It also gave a GI50 (HS 578T breast) of 4.32 µM, a TGI (HS 578T breast) of 18.2 µM and a GI50 (SNB-19 CNS) of 4.94 µM. The TGI (SNB-19 CNS) was 18 µM, the GI50 (HCT-116 colon) was 4.72 µM and the TGI (HCT-116 colon) was 19.5 µM. For the same compound, the GI50 (SW-620 colon) was 3.93 µM, the TGI (SW-620 colon) was 14.1 µM and the GI50 (MALME-3M melanoma) was 2.47 µM. It also gave a TGI (MALME-3M melanoma) of 6.92 µM, a GI50 (ACHN renal) of 30.6 µM and a TGI (ACHN renal) greater than 100 µM. For the same compound, the GI50 (OVCAR-4 ovarian) was 12.8 µM, the TGI (OVCAR-4 ovarian) was 30.3 µM and the GI50 (COLO 205 colon) was 6 µM. The TGI (COLO 205 colon) was 20.2 µM, the GI50 (TK-10 renal) was 16.9 µM and the TGI (TK-10 renal) was 37 µM. It also gave a GI50 (MCF7 breast) of 3.53 µM and a TGI (MCF7 breast) of 13.3 µM.
